Among the test systems are HCT-15 colon; SNB-75 CNS; MALME-3M melanoma; OVCAR-4 ovarian; RXF 393 renal; MCF7 breast; NCI-H226 lung; TK-10 renal; K-562 leukemia; SK-MEL-2 melanoma; COLO 205 colon; HT29 colon; SK-OV-3 ovarian; MDA-MB-435; NCI-H460 lung; SNB-19 CNS.
Common to all, as to assay: NCI anticancer screen, dose series, 48 h

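Protocol summary: plate cells (96-well), add compound at 5 concentrations, incubate 48 h, interpolate endpoints linearly. At the TGI there is no net growth.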 Some results are limits rather than exact numbers.

`NC(=O)CSc1c2cc(O)ccc2nc2ccc(O)cc12`: the TGI with HCT-15 colon, with SNB-75 CNS, with MALME-3M melanoma, in the assay on OVCAR-4 ovarian, in the assay with RXF 393 renal and in the assay on MCF7 breast was above 10 µM in each case. Also, the TGI with NCI-H226 lung, in the assay with TK-10 renal, in the assay on K-562 leukemia, in the assay on SK-MEL-2 melanoma, with COLO 205 colon and in the assay with HT29 colon was above 10 µM each time. Besides, the TGI with SK-OV-3 ovarian, in the assay on MDA-MB-435, with NCI-H460 lung and in the assay on SNB-19 CNS was above 10 µM throughout.

As for `c1ccc2cc3c(NC4=NCCO4)cccc3cc2c1`, the TGI in the assay with HCT-15 colon, in the assay on SNB-75 CNS, in the assay on MALME-3M melanoma, in the assay with OVCAR-4 ovarian, in the assay with RXF 393 renal and in the assay with MCF7 breast was above 100 µM each time. Moreover, the TGI in the assay on NCI-H226 lung is above 100 µM; in the assay on TK-10 renal it was above 100 µM; in the assay with K-562 leukemia it was above 100 µM; with SK-MEL-2 melanoma it was above 100 µM; in the assay with COLO 205 colon, above 100 µM; in the assay on HT29 colon it was 80.4 µM. The TGI is above 100 µM in the assay on SK-OV-3 ovarian, 98.8 µM in the assay on MDA-MB-435, above 100 µM in the assay with NCI-H460 lung and above 100 µM with SNB-19 CNS.

With `COC(=O)c1c(CC(Cc2ccc3c(c2)CCCC3)C(=O)O)ccc2c1CCCC2` (configuration not stated), the TGI was 33.8 µM with HCT-15 colon; above 100 µM in the assay with SNB-75 CNS; above 100 µM in the assay on MALME-3M melanoma; above 100 µM with OVCAR-4 ovarian; above 100 µM in the assay with RXF 393 renal; 84.1 µM with MCF7 breast. Besides, the TGI is above 100 µM in the assay on NCI-H226 lung; above 100 µM in the assay with TK-10 renal; above 100 µM in the assay with K-562 leukemia; 39.5 µM with SK-MEL-2 melanoma; 32.9 µM in the assay on COLO 205 colon; above 100 µM in the assay with HT29 colon. Also, the TGI with SK-OV-3 ovarian is above 100 µM; in the assay with MDA-MB-435, above 100 µM; with NCI-H460 lung it was 47.9 µM; in the assay on SNB-19 CNS it was above 100 µM.

For `Nc1nc2ccc(Sc3ccc4nc(N)[nH]c(=O)c4c3)cc2c(=O)[nH]1`, the TGI in the assay on HCT-15 colon, in the assay on SNB-75 CNS, in the assay with MALME-3M melanoma, with OVCAR-4 ovarian, in the assay with RXF 393 renal and in the assay with MCF7 breast was above 100 µM in each case. Besides, the TGI in the assay on NCI-H226 lung is 81.9 µM; with TK-10 renal, above 100 µM; with K-562 leukemia, above 100 µM; with SK-MEL-2 melanoma it was above 100 µM; in the assay with COLO 205 colon it was above 100 µM; with HT29 colon, above 100 µM. The TGI with SK-OV-3 ovarian, in the assay with MDA-MB-435, in the assay with NCI-H460 lung and in the assay on SNB-19 CNS was above 100 µM throughout.

Turning to `Cc1nc2ccc(S(=O)(=O)NS(=O)(=O)c3ccc(-c4ccccc4)cc3)cc2c(=O)n1NS(=O)(=O)c1ccc(-c2ccccc2)cc1`, the TGI in the assay on HCT-15 colon, in the assay on SNB-75 CNS, with MALME-3M melanoma, with OVCAR-4 ovarian, in the assay with RXF 393 renal and in the assay on MCF7 breast was above 100 µM each time. Moreover, the TGI in the assay with NCI-H226 lung, with TK-10 renal, with K-562 leukemia, in the assay on SK-MEL-2 melanoma, in the assay with COLO 205 colon and with HT29 colon was above 100 µM in each case. For the same compound, the TGI in the assay with SK-OV-3 ovarian, in the assay on MDA-MB-435, in the assay with NCI-H460 lung and in the assay on SNB-19 CNS was above 100 µM each time.

On to `Cc1ccc(-c2c(-c3ccccc3)[nH]c(C)c2C(=O)ONC(=O)c2ccccc2)cc1`, for which the TGI in the assay with HCT-15 colon stood at 24.1 µM; in the assay with SNB-75 CNS, 7.21 µM; in the assay with MALME-3M melanoma, 24.7 µM; in the assay with OVCAR-4 ovarian it was 9.48 µM; in the assay on RXF 393 renal, 5.83 µM; in the assay on MCF7 breast, 17.3 µM. Further, the TGI in the assay with NCI-H226 lung is 19.1 µM; in the assay with TK-10 renal, 18.2 µM; in the assay on K-562 leukemia it was 6.72 µM; in the assay on SK-MEL-2 melanoma, 16.2 µM; in the assay with COLO 205 colon, 25.7 µM; in the assay on HT29 colon, above 42.4 µM. Further, the TGI with SK-OV-3 ovarian worked out at 30 µM; in the assay with MDA-MB-435 it was 5.49 µM; in the assay with NCI-H460 lung it was 5.21 µM; with SNB-19 CNS, 20.1 µM.

With `C[C@H]1C2Cc3cc(O)ccc3[C@@]1(C)CCN2CCc1ccc(N)cc1`, the TGI was 33.3 µM in the assay on HCT-15 colon; above 100 µM in the assay on SNB-75 CNS; 34.8 µM in the assay with MALME-3M melanoma; above 100 µM in the assay with OVCAR-4 ovarian; above 100 µM in the assay on RXF 393 renal; 28.4 µM in the assay on MCF7 breast. In addition, the TGI was above 100 µM in the assay with NCI-H226 lung; above 100 µM with TK-10 renal; 52.6 µM in the assay on K-562 leukemia; above 100 µM in the assay on SK-MEL-2 melanoma; above 100 µM in the assay with COLO 205 colon; 31.9 µM in the assay with HT29 colon. Besides, the TGI in the assay on SK-OV-3 ovarian is above 100 µM; in the assay on MDA-MB-435, 32.5 µM; in the assay on NCI-H460 lung, above 100 µM; with SNB-19 CNS it was above 100 µM.

The record behind these values is PubChem BioAssay (NCI).
